# Where “and” joins values, the source holds several entries; their conditions need not be identical. Equal values may be shown once. Toxic doses and inconclusive results are not listed.
# System: P388 leukemia ip, CD2F1 mice, survival T/C
# Test: NCI In Vivo Anticancer Drug Screen. Data for tumor model P388 Leukemia (intraperitoneal) in CD2F1 (CDF1) mice
# Conditions: endpoint: median survival time, higher = longer survival
# Procedure, shortened: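 Mice carrying the transplanted tumor received test compound or vehicle. Survival was recorded in each group, and the value is the treated-group measurement divided by that of the vehicle-treated control group.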
# [1] = dose: 100.0 mg/kg/injection, schedule: Q01DX001 (ip), vehicle: saline
# [2] = dose: 200.0 mg/kg/injection, schedule: Q01DX001 (ip), vehicle: saline
# [3] = dose: 400.0 mg/kg/injection, schedule: Q01DX001 (ip), vehicle: saline
# [4] = dose: 60.0 mg/kg/injection, schedule: Q01DX005 (ip), vehicle: saline with Tween-80
# [5] = dose: 120.0 mg/kg/injection, schedule: Q01DX005 (ip), vehicle: saline with Tween-80
# [6] = dose: 240.0 mg/kg/injection, schedule: Q01DX005 (ip), vehicle: saline with Tween-80
# [7] = dose: 60.0 mg/kg/injection, schedule: Q01DX005 (ip), vehicle: Klucel (hydroxypropylcellulose) (HPC)
# [8] = dose: 120.0 mg/kg/injection, schedule: Q01DX005 (ip), vehicle: Klucel (hydroxypropylcellulose) (HPC)
# [9] = dose: 50.0 mg/kg/injection, schedule: Q01DX005 (ip), vehicle: Klucel (hydroxypropylcellulose) (HPC)
# [10] = dose: 100.0 mg/kg/injection, schedule: Q01DX005 (ip), vehicle: Klucel (hydroxypropylcellulose) (HPC)
# [11] = dose: 200.0 mg/kg/injection, schedule: Q01DX005 (ip), vehicle: Klucel (hydroxypropylcellulose) (HPC)
# [12] = dose: 50.0 mg/kg/injection, schedule: Q01DX005 (ip), vehicle: saline with Tween-80
smiles,measurement,setting,value
O=C(O)CN(CC(=O)O)C1CC1N(CC(=O)O)CC(=O)O (stereo not given),T/C,"dose: 50.0 mg/kg/injection, schedule: Q01DX009 (ip), vehicle: saline",97 % of control
same,T/C,[1],96 % of control
same,T/C,"dose: 100.0 mg/kg/injection, schedule: Q01DX009 (ip), vehicle: saline",100 % of control
same,T/C,[2],100 % of control
same,T/C,"dose: 200.0 mg/kg/injection, schedule: Q01DX009 (ip), vehicle: saline",97 % of control
same,T/C,[3],97 % of control
N#CC(C(=O)CCC(=O)C(C#N)c1ccccc1Cl)c1ccccc1Cl (stereo not given),T/C,[4],104 % of control
same,T/C,[5],114 % of control
same,T/C,[6],111 % of control
COC(=O)Nc1nc2ccc(C3c4c(n[nH]c4C)CC(C)(O)C3C(C)=O)cc2[nH]1 (stereo not given),T/C,[4],98 % of control
same,T/C,[5],101 % of control
same,T/C,[6],101 % of control
Nc1ccc(S(=O)(=O)Nc2c(N)[nH]c(=S)[nH]c2=O)cc1,T/C,"dose: 15.0 mg/kg/injection, schedule: Q01DX005 (ip), vehicle: Klucel (hydroxypropylcellulose) (HPC)",97 % of control
same,T/C,"dose: 15.0 mg/kg/injection, schedule: Q01DX005 (ip), vehicle: saline with Tween-80",115 % of control
same,T/C,"dose: 30.0 mg/kg/injection, schedule: Q01DX005 (ip), vehicle: Klucel (hydroxypropylcellulose) (HPC)",97 % of control
same,T/C,"dose: 30.0 mg/kg/injection, schedule: Q01DX005 (ip), vehicle: saline with Tween-80",105 % of control
same,T/C,[7],92 % of control
same,T/C,[4],98 % of control
same,T/C,[8],100 % of control
same,T/C,[5],100 % of control
CN(C)CCCN1c2ccccc2C2CC2c2ccccc21 (stereo not given),T/C,"dose: 5.0 mg/kg/injection, schedule: Q01DX009 (ip), vehicle: saline with Tween-80",100 % of control
same,T/C,"dose: 100.0 mg/kg/injection, schedule: Q01DX009 (ip), vehicle: saline with Tween-80",98 % of control
C=C(N=NNc1ccccc1)c1ccccc1,T/C,[9],97 % of control
same,T/C,[10],101 % of control
same,T/C,[11],93 % of control
OC1(c2ccc(F)cc2)CCNCC1,T/C,[7],104 % of control
same,T/C,[8],92 % of control
CC(CCCN)Nc1cc(O)cc2cccnc12 (stereo not given),T/C,[1],92 % of control
same,T/C,[2],92 % of control
same,T/C,[3],89 % of control
C=CCOc1cc2c(cc1C(C)c1ccc(OC)c(C)c1)OCO2 (stereo not given),T/C,[12],100 % of control
same,T/C,"dose: 100.0 mg/kg/injection, schedule: Q01DX005 (ip), vehicle: saline with Tween-80",95 % of control
same,T/C,"dose: 200.0 mg/kg/injection, schedule: Q01DX005 (ip), vehicle: saline with Tween-80",120 % of control
c1ccc(-c2nn[nH]n2)cc1,T/C,"dose: 25.0 mg/kg/injection, schedule: Q01DX009 (ip), vehicle: Klucel (hydroxypropylcellulose) (HPC)",100 % of control
same,T/C,"dose: 50.0 mg/kg/injection, schedule: Q01DX009 (ip), vehicle: Klucel (hydroxypropylcellulose) (HPC)",100 % of control
same,T/C,"dose: 100.0 mg/kg/injection, schedule: Q01DX009 (ip), vehicle: Klucel (hydroxypropylcellulose) (HPC)",118 % of control
same,T/C,"dose: 200.0 mg/kg/injection, schedule: Q01DX009 (ip), vehicle: Klucel (hydroxypropylcellulose) (HPC)",100 % of control
CC(=O)O[C@@H]1CO[C@H]2O[C@H]3[C@@H](C(C=O)=C[C@H](O)[C@@H]4C5=C(C(C)C)CC[C@]5(C)CC[C@@]34C)[C@@]2(O)C1=O,T/C,"dose: 0.39 mg/kg/injection, schedule: Q01DX009 (ip), vehicle: Klucel (hydroxypropylcellulose) (HPC)",94 % of control
same,T/C,"dose: 0.78 mg/kg/injection, schedule: Q01DX009 (ip), vehicle: Klucel (hydroxypropylcellulose) (HPC)",104 % of control
same,T/C,"dose: 3.12 mg/kg/injection, schedule: Q01DX009 (ip), vehicle: Klucel (hydroxypropylcellulose) (HPC)",107 % of control and 114 % of control
same,T/C,"dose: 6.25 mg/kg/injection, schedule: Q01DX009 (ip), vehicle: Klucel (hydroxypropylcellulose) (HPC)",115 % of control and 121 % of control
CC(=O)N/N=C/c1ccccc1[N+](=O)[O-],T/C,"dose: 12.5 mg/kg/injection, schedule: Q01DX009 (ip), vehicle: other",97 % of control
same,T/C,"dose: 25.0 mg/kg/injection, schedule: Q01DX009 (ip), vehicle: other",96 % of control
same,T/C,"dose: 50.0 mg/kg/injection, schedule: Q01DX009 (ip), vehicle: other",98 % of control
same,T/C,"dose: 100.0 mg/kg/injection, schedule: Q01DX009 (ip), vehicle: other",107 % of control
Brc1ccc2[nH]c3nc(N/N=C/c4cccs4)nnc3c2c1,T/C,"dose: 100.0 mg/kg/injection, schedule: Q04DX002 (ip), vehicle: saline with Tween-80",90 % of control
same,T/C,"dose: 200.0 mg/kg/injection, schedule: Q04DX002 (ip), vehicle: saline with Tween-80",99 % of control
same,T/C,"dose: 400.0 mg/kg/injection, schedule: Q04DX002 (ip), vehicle: saline with Tween-80",106 % of control
Cc1n[nH]c(=O)n2c1nc1ccccc12,T/C,[7],95 % of control
same,T/C,[8],95 % of control
same,T/C,"dose: 240.0 mg/kg/injection, schedule: Q01DX005 (ip), vehicle: Klucel (hydroxypropylcellulose) (HPC)",92 % of control
NC(=O)c1ccc(Cl)cc1C(N)=O,T/C,[9],99 % of control
same,T/C,[10],105 % of control
same,T/C,[11],99 % of control
CC(=O)NC1C(Nc2ccc(S(=O)(=O)Nc3nccc(C)n3)cc2)OC(CO)C(O)C1O (stereo not given),T/C,"dose: 50.0 mg/kg/injection, schedule: Q01DX005 (ip), vehicle: saline",100 % of control
same,T/C,"dose: 100.0 mg/kg/injection, schedule: Q01DX005 (ip), vehicle: saline",105 % of control
same,T/C,"dose: 200.0 mg/kg/injection, schedule: Q01DX005 (ip), vehicle: saline",92 % of control
C[N+](C)(C)NP(=O)(N[N+](C)(C)C)Oc1ccccc1,T/C,"dose: 60.0 mg/kg/injection, schedule: Q01DX005 (ip), vehicle: saline",100 % of control and 110 % of control and 93 % of control
same,T/C,"dose: 120.0 mg/kg/injection, schedule: Q01DX005 (ip), vehicle: saline",103 % of control and 110 % of control (2×)
same,T/C,"dose: 240.0 mg/kg/injection, schedule: Q01DX005 (ip), vehicle: saline",100 % of control and 104 % of control
same,T/C,"dose: 480.0 mg/kg/injection, schedule: Q01DX005 (ip), vehicle: saline",104 % of control and 95 % of control
O=C1OCC=C1Sc1ccccc1,T/C,[4],106 % of control
same,T/C,[5],108 % of control
CC(C)(C)OC(=O)NC(CC(Cc1ccccc1)C(=O)O)C(=O)NC(CC(Cc1ccccc1)C(=O)O)C(=O)NC(CC(Cc1ccccc1)C(=O)O)C(=O)NCC(=O)Oc1ccc([N+](=O)[O-])cc1 (stereo not given),T/C,"dose: 12.5 mg/kg/injection, schedule: Q01DX005 (ip), vehicle: saline with Tween-80",99 % of control
same,T/C,"dose: 25.0 mg/kg/injection, schedule: Q01DX005 (ip), vehicle: saline with Tween-80",91 % of control
same,T/C,[12],89 % of control
COc1cc(C2C3=C(CC(C)(C)CC3=O)Oc3cc4c(cc32)OCO4)cc(OC)c1OC (stereo not given),T/C,[4],97 % of control
same,T/C,[5],98 % of control
O=[N+]([O-])c1ccc(-c2c[s+]cs2)cc1,T/C,"dose: 6.25 mg/kg/injection, schedule: Q01DX009 (ip), vehicle: distilled water + Tween-80",101 % of control
same,T/C,"dose: 12.5 mg/kg/injection, schedule: Q01DX009 (ip), vehicle: distilled water + Tween-80",101 % of control
same,T/C,"dose: 25.0 mg/kg/injection, schedule: Q01DX009 (ip), vehicle: distilled water + Tween-80",108 % of control
same,T/C,"dose: 50.0 mg/kg/injection, schedule: Q01DX009 (ip), vehicle: distilled water + Tween-80",95 % of control
same,T/C,"dose: 100.0 mg/kg/injection, schedule: Q01DX009 (ip), vehicle: distilled water + Tween-80",104 % of control
COc1cc(N)c2c(c1N)C(=O)c1ccccc1C2=O,T/C,[9],98 % of control
same,T/C,[10],101 % of control
same,T/C,[11],97 % of control
O=C(O)C1=CO[C@@H](OC2OC(CO)C(O)C(O)C2O)[C@H]2[C@@H]1C=C[C@]2(O)CO (stereo not given in full),T/C,"dose: 4.68 mg/kg/injection, schedule: Q01DX009 (ip), vehicle: Klucel (hydroxypropylcellulose) (HPC)",101 % of control
same,T/C,"dose: 9.37 mg/kg/injection, schedule: Q01DX009 (ip), vehicle: Klucel (hydroxypropylcellulose) (HPC)",97 % of control
same,T/C,"dose: 18.75 mg/kg/injection, schedule: Q01DX009 (ip), vehicle: Klucel (hydroxypropylcellulose) (HPC)",97 % of control
same,T/C,"dose: 37.5 mg/kg/injection, schedule: Q01DX009 (ip), vehicle: Klucel (hydroxypropylcellulose) (HPC)",94 % of control
same,T/C,"dose: 75.0 mg/kg/injection, schedule: Q01DX009 (ip), vehicle: Klucel (hydroxypropylcellulose) (HPC)",98 % of control and 90 % of control
same,T/C,"dose: 150.0 mg/kg/injection, schedule: Q01DX009 (ip), vehicle: Klucel (hydroxypropylcellulose) (HPC)",97 % of control
CN(c1ccccc1)P(=O)(N1CC1)N1CC1,T/C,"dose: 12.5 mg/kg/injection, schedule: Q01DX009 (ip), vehicle: saline sonified",200 % of control
same,T/C,"dose: 25.0 mg/kg/injection, schedule: Q04DX003 (ip), vehicle: saline with Tween-80",160 % of control and 195 % of control
same,T/C,"dose: 37.5 mg/kg/injection, schedule: Q04DX003 (ip), vehicle: saline with Tween-80",186 % of control

# Source: PubChem BioAssay AID330 (DTP/NCI, 2004)
